Laboratory results taken from ChEMBL document CHEMBL6178004, “Novel Azaindole Compounds as Phosphodiesterase 4B Inhibitors for Treating Immune-Inflammatory Diseases or Disorders” (ACS Med Chem Lett, 2025).

Assays:
[1] = target: 3',5'-cyclic-AMP phosphodiesterase 4D (Homo sapiens, UniProt Q08499); experiment: Inhibition of human recombinant PDE4D3 using [3H]cAMP as substrate incubated for 30 mins by scintillation proximity assay; type: single protein
[2] = target: 3',5'-cyclic-AMP phosphodiesterase 4B (Homo sapiens, UniProt Q07343); experiment: Inhibition of human recombinant PDE4B1 using [3H]cAMP as substrate incubated for 30 mins by scintillation proximity assay
Sequence of 3',5'-cyclic-AMP phosphodiesterase 4B (Q07343 whole entry): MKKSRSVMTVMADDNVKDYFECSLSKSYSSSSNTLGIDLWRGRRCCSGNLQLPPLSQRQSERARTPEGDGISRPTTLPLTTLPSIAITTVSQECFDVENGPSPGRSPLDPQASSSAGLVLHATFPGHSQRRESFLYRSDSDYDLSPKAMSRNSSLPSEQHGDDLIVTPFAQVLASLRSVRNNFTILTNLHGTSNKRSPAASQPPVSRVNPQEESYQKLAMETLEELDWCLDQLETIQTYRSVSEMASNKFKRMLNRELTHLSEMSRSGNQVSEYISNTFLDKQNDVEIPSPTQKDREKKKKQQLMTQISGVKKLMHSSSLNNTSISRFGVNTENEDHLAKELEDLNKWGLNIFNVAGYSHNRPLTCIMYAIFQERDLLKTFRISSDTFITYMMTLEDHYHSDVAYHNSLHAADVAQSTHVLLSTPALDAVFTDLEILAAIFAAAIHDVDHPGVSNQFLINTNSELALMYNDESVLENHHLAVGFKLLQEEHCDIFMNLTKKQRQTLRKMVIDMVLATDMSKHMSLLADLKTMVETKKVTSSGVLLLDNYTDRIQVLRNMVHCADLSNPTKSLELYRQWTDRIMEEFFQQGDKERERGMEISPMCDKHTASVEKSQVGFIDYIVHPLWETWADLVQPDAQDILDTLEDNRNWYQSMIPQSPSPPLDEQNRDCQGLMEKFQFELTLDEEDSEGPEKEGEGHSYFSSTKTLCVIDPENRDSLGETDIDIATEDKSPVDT

Sequence of 3',5'-cyclic-AMP phosphodiesterase 4D (Q08499 whole entry): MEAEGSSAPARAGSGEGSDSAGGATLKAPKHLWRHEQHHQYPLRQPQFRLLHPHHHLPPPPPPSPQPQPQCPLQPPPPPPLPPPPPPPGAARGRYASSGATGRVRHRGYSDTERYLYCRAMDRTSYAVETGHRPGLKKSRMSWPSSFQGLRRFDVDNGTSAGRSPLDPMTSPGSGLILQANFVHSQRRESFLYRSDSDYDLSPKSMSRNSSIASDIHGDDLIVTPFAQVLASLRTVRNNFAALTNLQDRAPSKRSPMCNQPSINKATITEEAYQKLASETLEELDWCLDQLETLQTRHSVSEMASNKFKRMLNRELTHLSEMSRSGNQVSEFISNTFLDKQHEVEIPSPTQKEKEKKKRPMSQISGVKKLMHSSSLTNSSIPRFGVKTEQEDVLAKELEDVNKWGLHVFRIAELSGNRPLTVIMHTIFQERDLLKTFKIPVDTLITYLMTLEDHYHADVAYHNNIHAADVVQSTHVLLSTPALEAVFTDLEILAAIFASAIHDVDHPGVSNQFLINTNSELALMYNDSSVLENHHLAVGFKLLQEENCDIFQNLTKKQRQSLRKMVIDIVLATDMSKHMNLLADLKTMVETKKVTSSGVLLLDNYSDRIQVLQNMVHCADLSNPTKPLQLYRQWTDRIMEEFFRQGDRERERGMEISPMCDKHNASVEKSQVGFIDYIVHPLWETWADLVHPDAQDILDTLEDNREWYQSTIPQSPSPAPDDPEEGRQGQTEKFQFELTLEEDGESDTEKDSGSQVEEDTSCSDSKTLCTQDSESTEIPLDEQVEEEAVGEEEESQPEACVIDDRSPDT

| Structure (SMILES) | IC50 [2] [nM] | IC50 [1] [nM] |
| --- | --- | --- |
| N#Cc1ccc(-c2c3n(c4cccnc24)C[C@@H](CO)N(C2CC2)C3=O)cc1F | < 10 | 10 |
| C[C@@H]1Cn2c(c(-c3ccc(Cl)c(F)c3)c3ncccc32)C(=O)N1CCO | < 10 | < 10 |

Now from value to molecule, other results behind:

| IC50 [2] [nM] | Structure (SMILES) | IC50 [1] [nM] |
| --- | --- | --- |
| < 10 | O=C1c2c(-c3ccc(Cl)c(F)c3)c3ncccc3n2CCN1CCO | 10 |
| < 10 | O=C1c2c(-c3ccc(F)c(F)c3)c3ncccc3n2C[C@@H](CO)N1C1CC1 | 10 |
| < 10 | COc1ccc(-c2c3n(c4cc(F)cnc24)C[C@H](CO)N(C2CC2)C3=O)cn1 | 10 |
| < 10 | O=C1c2c(-c3ccc(Cl)c(F)c3)c3ncccc3n2C[C@H](CO)N1C1CC1 | 10 |
